According to publication PMC11231114 (EJNMMI Research, 2024):

Assay: Dynamic microPET/CT imaging
Experimental: The scans were performed on a trimodal small animal scanner Albira Si PET/SPECT/CT Preclinical Imaging System (Bruker, Billerica, MA, USA) in a group of Wistar rats anesthetized with isoflurane (induction 4%, maintenance 1.5-2%).

CN(C)c1ccc2cc3ccc(N(C)C)cc3[n+](CC[18F])c2c1 [[^18F]SYN2]
SUV in the myocardium, plateau (after 6 min): 3.5 | SUV in the liver (at 45 min): 1.9 | SUV in the myocardium at the beginning (dynamic microPET): 4.0 | SUVmax in the liver (dynamic microPET): 2.9 | average standardized uptake value, myocardial uptake (dynamic microPET): 3.8
